Holding throughout (type): functional
The subject of test [1] is Galendromus occidentalis. As to the kind of experiment: Toxicity against Metaseiulus occidentalis adults in bean leaf disk infested with two-spotted spider mites assessed as repellency at 0.3767 g AI/L treated using worst-case laboratory exposure procedure measured after 72 hr (reference value: 16.1%).
Test [2] deals with Galendromus occidentalis. As to the kind of experiment: Toxicity against Metaseiulus occidentalis adults in bean leaf disk infested with two-spotted spider mites assessed as average number of eggs laid (fecundity) at 0.3767 g AI/L treated using worst-case laboratory exposure procedure measured after 72 hr (reference value: 2.23/day).
For test [3], the system named is Galendromus occidentalis. Briefly: Toxicity against Metaseiulus occidentalis adults in bean leaf disk infested with two-spotted spider mites assessed as average number of eggs laid (fecundity) at 0.3767 g AI/L treated using worst-case laboratory exposure procedure measured after 48 hr (reference value: 2.30/day).
Test [4] concerns Galendromus occidentalis. Briefly: Toxicity against Metaseiulus occidentalis adults in bean leaf disk infested with two-spotted spider mites assessed as repellency at 0.3767 g AI/L treated using worst-case laboratory exposure procedure measured after 24 hr (reference value: 3.6%).
Test [5] relates to Galendromus occidentalis. Briefly: Toxicity against Metaseiulus occidentalis adults in bean leaf disk infested with two-spotted spider mites assessed as average number of eggs laid (fecundity) at 0.3767 g AI/L treated using worst-case laboratory exposure procedure measured after 24 hr (reference value: 2.11/day).
The subject of test [6] is Galendromus occidentalis. As to the kind of experiment: Ovicidal activity against Metaseiulus occidentalis eggs in bean leaf disk infested with two-spotted spider mites assessed as corrected cumulative mortality at 240 g/L SC formulation treated using worst-case laboratory exposure procedure measured after 144 hr (reference value: 0.7%).
In test [7] the test system is Galendromus occidentalis. Briefly: Toxicity against Metaseiulus occidentalis adults in bean leaf disk infested with two-spotted spider mites assessed as repellency at 0.3767 g AI/L treated using worst-case laboratory exposure procedure measured after 48 hr (reference value: 13.6%).
Test [8] concerns Galendromus occidentalis. As to the kind of experiment: Toxicity against Metaseiulus occidentalis adults in bean leaf disk infested with two-spotted spider mites assessed as corrected mortality at 0.3767 g AI/L treated using worst-case laboratory exposure procedure measured after 72 hr.
Test [9] has as its system Galendromus occidentalis. Briefly: Toxicity against Metaseiulus occidentalis adults in bean leaf disk infested with two-spotted spider mites assessed as repellency at 0.3024 g AI/L treated using worst-case laboratory exposure procedure measured after 48 hr (reference value: 13.6%).
Test [10] deals with Galendromus occidentalis. As to the kind of experiment: Toxicity against Metaseiulus occidentalis adults in bean leaf disk infested with two-spotted spider mites assessed as average number of eggs laid (fecundity) at 0.3024 g AI/L treated using worst-case laboratory exposure procedure measured after 48 hr (reference value: 2.30/day).
Test [11] concerns Galendromus occidentalis. Briefly: Toxicity against Metaseiulus occidentalis adults in bean leaf disk infested with two-spotted spider mites assessed as corrected mortality at 0.3024 g AI/L treated using worst-case laboratory exposure procedure measured after 72 hr.
In test [12] the test system is Galendromus occidentalis. As to the kind of experiment: Toxicity against Metaseiulus occidentalis adults in bean leaf disk infested with two-spotted spider mites assessed as repellency at 0.3024 g AI/L treated using worst-case laboratory exposure procedure measured after 72 hr (reference value: 16.1%).
Test [13] concerns Galendromus occidentalis. As to the kind of experiment: Toxicity against Metaseiulus occidentalis adults in bean leaf disk infested with two-spotted spider mites assessed as average number of eggs laid (fecundity) at 0.3024 g AI/L treated using worst-case laboratory exposure procedure measured after 72 hr (reference value: 2.23/day).
Test [14] has as its system Galendromus occidentalis. Briefly: Toxicity against Metaseiulus occidentalis adults in bean leaf disk infested with two-spotted spider mites assessed as average number of eggs laid (fecundity) at 0.3024 g AI/L treated using worst-case laboratory exposure procedure measured after 24 hr (reference value: 2.11/day).
The test system of test [15] is Galendromus occidentalis. Briefly: Toxicity against Metaseiulus occidentalis adults in bean leaf disk infested with two-spotted spider mites assessed as repellency at 0.3024 g AI/L treated using worst-case laboratory exposure procedure measured after 24 hr (reference value: 3.6%).
Test [16] relates to Galendromus occidentalis. As to the kind of experiment: Toxicity against Metaseiulus occidentalis adults in bean leaf disk infested with two-spotted spider mites assessed as repellency at 0.1333 g AI/L treated using worst-case laboratory exposure procedure measured after 48 hr (reference value: 13.6%).
Test [17] relates to Galendromus occidentalis. Briefly: Toxicity against Metaseiulus occidentalis adults in bean leaf disk infested with two-spotted spider mites assessed as corrected mortality at 4x0.1600 g AI/L treated using worst-case laboratory exposure procedure measured after 72 hr.
Test [18] concerns Galendromus occidentalis. As to the kind of experiment: Toxicity against Metaseiulus occidentalis adults in bean leaf disk infested with two-spotted spider mites assessed as average number of eggs laid (fecundity) at 0.1333 g AI/L treated using worst-case laboratory exposure procedure measured after 48 hr (reference value: 2.30/day).
Test [19] concerns Galendromus occidentalis. As to the kind of experiment: Ovicidal activity against Metaseiulus occidentalis eggs in bean leaf disk infested with two-spotted spider mites assessed as corrected cumulative mortality at 480 g/L SC formulation treated using worst-case laboratory exposure procedure measured after 144 hr (reference value: 0.7%).
For test [20], the system named is Galendromus occidentalis. As to the kind of experiment: Toxicity against Metaseiulus occidentalis adults in bean leaf disk infested with two-spotted spider mites assessed as average number of eggs laid (fecundity) at 0.1333 g AI/L treated using worst-case laboratory exposure procedure measured after 24 hr (reference value: 2.11/day).
Test [21] has as its system Galendromus occidentalis. As to the kind of experiment: Toxicity against Metaseiulus occidentalis adults in bean leaf disk infested with two-spotted spider mites assessed as corrected mortality at 0.1600 g AI/L treated using worst-case laboratory exposure procedure measured after 72 hr.
The subject of test [22] is Galendromus occidentalis. Briefly: Toxicity against Metaseiulus occidentalis adults in bean leaf disk infested with two-spotted spider mites assessed as repellency at 0.1333 g AI/L treated using worst-case laboratory exposure procedure measured after 72 hr (reference value: 16.1%).
In test [23] the test system is Galendromus occidentalis. As to the kind of experiment: Toxicity against Metaseiulus occidentalis adults in bean leaf disk infested with two-spotted spider mites assessed as repellency at 0.1333 g AI/L treated using worst-case laboratory exposure procedure measured after 24 hr (reference value: 3.6%).
For test [24], the system named is Galendromus occidentalis. Briefly: Toxicity against Metaseiulus occidentalis adults in bean leaf disk infested with two-spotted spider mites assessed as corrected mortality at 2x0.1600 g AI/L treated using worst-case laboratory exposure procedure measured after 72 hr.
Test [25] has as its system Galendromus occidentalis. As to the kind of experiment: Toxicity against Metaseiulus occidentalis adults in bean leaf disk infested with two-spotted spider mites assessed as average number of eggs laid (fecundity) at 0.1333 g AI/L treated using worst-case laboratory exposure procedure measured after 72 hr (reference value: 2.23/day).

Turning to `COc1cccc(C(=O)NN(C(=O)c2cc(C)cc(C)c2)C(C)(C)C)c1C` [METHOXYFENOZIDE], the Repellency in test [1] is 9%; in test [4], 3.8%; in test [7], 5.8%. The Activity worked out at 2.38 day⁻¹ in test [2], 2.15 day⁻¹ in [3] and 1.93 day⁻¹ in [5]. In addition, in [6], the mortality at 240000 µg/mL (stock) was 3.1%. Besides, the mortality in test [8] stood at 1.3%.
In the case of `CCC(C)(C)C(=O)OC1=C(c2ccc(Cl)cc2Cl)C(=O)OC12CCCCC2` [SPIRODICLOFEN], the Repellency in [9] is reported as 13.5%; in test [12], 15.4%; in test [15], 6.4%. Further, the Activity in [10] was found to be 1.83 day⁻¹; in test [13] it was 1.43 day⁻¹; in [14], 1.93 day⁻¹. Further, the mortality in test [11] is reported as 2.1%. For the same molecule, the mortality at 240000 µg/mL (stock) in test [6] stood at 2.3%.
As for `N#C/N=C1\SCCN1Cc1ccc(Cl)nc1` [THIACLOPRID], the Repellency was 44.9% in [16], 49.4% in [22] and 12.2% in [23]. Also, the figures for the mortality in test [17], in [21] and in [24] were 5.8%, 2.8% and 2.3%, respectively. Moreover, the figures for the Activity in test [18], in [20] and in test [25] were 1.26 day⁻¹, 1.64 day⁻¹ and 1.58 day⁻¹, respectively. Moreover, the mortality at 480000 µg/mL (stock) in test [19] is 1.9%.

The values above are taken from ChEMBL document CHEMBL3045618, “Effect of seven new orchard pesticides on Galendromus occidentalis in laboratory studies” (2009).
